# Results taken from PMC5578959, “Selective LRRK2 kinase inhibition reduces phosphorylation of endogenous Rab10 and Rab12 in human peripheral mononuclear blood cells” (Scientific Reports, 2017).
# Tests used:
# Assay in all cases: KiNativ profiling in human PBMCs
# Format in all cases: binding
# ULK1 = test system: T1, ULK1; conditions: Lys2
# T1 construct: purchased ActivX Technologies (KiNativ)
# Description: (§1) Compounds were shipped to ActivX Technologies (San Diego, US) where LRRK2 target engagement and broad kinase profiling was performed using KiNativ™ procedures. Live cell treatment of human peripheral blood mononuclear cells (PBMCs) at two compound concentrations (1 µM and 0.1 µM) were used to evaluate and compare in vitro target engagement and kinase selectivity, respectively (see Supplementary File 1).
# [1] = test system: CaMK2a,CaMK2b,CaMK2d,CaMK2g; conditions: Lys2
# Description: as §1
# NEK6,NEK7 = conditions: Lys2
# Description: as §1
# IKKb = test system: T2, IKKb
# T2 construct: purchased ActivX Technologies (KiNativ)
# Description: as §1
# CK1g2 = test system: T3, CK1g2; conditions: Lys2
# T3 construct: purchased ActivX Technologies (KiNativ)
# Description: as §1
# HCK = test system: T4, HCK
# T4 construct: purchased ActivX Technologies (KiNativ)
# Description: as §1
# QSK = test system: T5, QSK; conditions: Lys1
# T5 construct: purchased ActivX Technologies (KiNativ)
# Description: as §1
# FGR = test system: T6, FGR; conditions: Activation Loop
# T6 construct: purchased ActivX Technologies (KiNativ)
# Description: as §1
# p70S6K = test system: T7, p70S6K; conditions: Lys2
# T7 construct: purchased ActivX Technologies (KiNativ)
# Description: as §1
# MAST3 = test system: T8, MAST3; conditions: Lys2
# T8 construct: purchased ActivX Technologies (KiNativ)
# Description: as §1
# KSR1 = test system: T9, KSR1; conditions: Activation Loop
# T9 construct: purchased ActivX Technologies (KiNativ)
# Description: as §1
# NEK9 = test system: T10, NEK9
# T10 construct: purchased ActivX Technologies (KiNativ)
# Description: as §1
# CaMK1d = test system: T11, CaMK1d
# T11 construct: purchased ActivX Technologies (KiNativ)
# Description: as §1
# MAP3K1 = test system: T12, MAP3K1; conditions: Lys2
# T12 construct: purchased ActivX Technologies (KiNativ)
# Description: as §1
# Erk2 = test system: T13, Erk2; conditions: Lys2
# T13 construct: purchased ActivX Technologies (KiNativ)
# Description: as §1
# ULK3 = test system: T14, ULK3
# T14 construct: purchased ActivX Technologies (KiNativ)
# Description: as §1
# PCTAIRE2 = test system: T15, PCTAIRE2; conditions: Lys2
# T15 construct: purchased ActivX Technologies (KiNativ)
# Description: as §1
# TLK1 = test system: T16, TLK1
# T16 construct: purchased ActivX Technologies (KiNativ)
# Description: as §1
# MAP3K5 = test system: T17, MAP3K5; conditions: Lys2
# T17 construct: purchased ActivX Technologies (KiNativ)
# Description: as §1
# ILK = test system: T18, ILK
# T18 construct: purchased ActivX Technologies (KiNativ)
# Description: as §1
# LCK = test system: T19, LCK; conditions: Activation Loop
# T19 construct: purchased ActivX Technologies (KiNativ)
# Description: as §1
# MARK1,MARK2 = conditions: Lys1
# Description: as §1
# SGK3 = test system: T20, SGK3
# T20 construct: purchased ActivX Technologies (KiNativ)
# Description: as §1
# JAK3 domain2 = test system: T21, JAK3 domain2
# T21 construct: JAK3 domain2; purchased ActivX Technologies (KiNativ)
# Description: as §1
# PRP4 = test system: T22, PRP4
# T22 construct: purchased ActivX Technologies (KiNativ)
# Description: as §1
# KSR1,KSR2 = conditions: Activation Loop
# Description: as §1
# MLKL = test system: T23, MLKL; conditions: Lys1
# T23 construct: purchased ActivX Technologies (KiNativ)
# Description: as §1
# MAP2K6 = test system: T24, MAP2K6
# T24 construct: purchased ActivX Technologies (KiNativ)
# Description: as §1
# YANK3 = test system: T25, YANK3; conditions: Lys2
# T25 construct: purchased ActivX Technologies (KiNativ)
# Description: as §1
# p38d,p38g = conditions: Lys2
# Description: as §1
# SMG1 = test system: T26, SMG1; conditions: ATP
# T26 construct: purchased ActivX Technologies (KiNativ)
# Description: as §1
# FER = test system: T27, FER
# T27 construct: purchased ActivX Technologies (KiNativ)
# Description: as §1
# ARAF = test system: T28, ARAF; conditions: Lys2
# T28 construct: purchased ActivX Technologies (KiNativ)
# Description: as §1
# ABL,ARG = test system: ABL,ARG
# Description: as §1
# MST2 = test system: T29, MST2; conditions: Lys1
# T29 construct: purchased ActivX Technologies (KiNativ)
# Description: as §1
# STLK3 = test system: T30, STLK3; conditions: Lys2
# T30 construct: purchased ActivX Technologies (KiNativ)
# Description: as §1
smiles,measurement,setting,value
Cn1cc(-c2c[nH]c3ncnc(N4CCOCC4)c23)cc1C#N [PFE-360],% Inhibition,ULK1; 0.1µM,9.8%
same,% Inhibition,ULK1; 1µM,4.2%
same,% Inhibition,[1]; 0.1µM,6.1%
same,% Inhibition,[1]; 1µM,1.2%
same,% Inhibition,"NEK6,NEK7; 0.1µM",-2.4%
same,% Inhibition,"NEK6,NEK7; 1µM",-18.6%
same,% Inhibition,"IKKb; 0.1µM, Lys1",-5%
same,% Inhibition,"IKKb; 0.1µM, Lys2",-6%
same,% Inhibition,"IKKb; 1µM, Lys1",-10.5%
same,% Inhibition,"IKKb; 1µM, Lys2",-31.2%
same,% Inhibition,CK1g2; 0.1µM,-2%
same,% Inhibition,CK1g2; 1µM,-13.3%
same,% Inhibition,"HCK; 0.1µM, Activation Loop",-0.8%
same,% Inhibition,"HCK; 0.1µM, Lys1",-20.8%
same,% Inhibition,"HCK; 1µM, Activation Loop",-4.1%
same,% Inhibition,"HCK; 1µM, Lys1",12.3%
same,% Inhibition,QSK; 0.1µM,-13%
same,% Inhibition,QSK; 1µM,-12.1%
same,% Inhibition,FGR; 0.1µM,-2.5%
same,% Inhibition,FGR; 1µM,-6.6%
same,% Inhibition,p70S6K; 0.1µM,-16.9%
same,% Inhibition,p70S6K; 1µM,8.5%
same,% Inhibition,MAST3; 0.1µM,0.2%
same,% Inhibition,MAST3; 1µM,-2.7%
same,% Inhibition,KSR1; 0.1µM,6.8%
same,% Inhibition,KSR1; 1µM,8.2%
same,% Inhibition,"NEK9; 0.1µM, Lys1",-10.6%
same,% Inhibition,"NEK9; 0.1µM, Lys2",8.9%
same,% Inhibition,"NEK9; 1µM, Lys1",-19.6%
same,% Inhibition,"NEK9; 1µM, Lys2",5.7%
same,% Inhibition,"CaMK1d; 0.1µM, Lys1",8%
same,% Inhibition,"CaMK1d; 0.1µM, Lys2",6.4%
same,% Inhibition,"CaMK1d; 1µM, Lys1",-1.5%
same,% Inhibition,"CaMK1d; 1µM, Lys2",20.2%
same,% Inhibition,MAP3K1; 0.1µM,7%
same,% Inhibition,MAP3K1; 1µM,-26.4%
same,% Inhibition,Erk2; 0.1µM,9.1%
same,% Inhibition,Erk2; 1µM,5.3%
same,% Inhibition,"ULK3; 0.1µM, Lys1",1%
same,% Inhibition,"ULK3; 0.1µM, Lys2",-2.5%
same,% Inhibition,"ULK3; 1µM, Lys1",-3%
same,% Inhibition,"ULK3; 1µM, Lys2",0.6%
same,% Inhibition,PCTAIRE2; 0.1µM,-2.4%
same,% Inhibition,PCTAIRE2; 1µM,-5.2%
same,% Inhibition,"TLK1; 0.1µM, Lys1",-0.5%
same,% Inhibition,"TLK1; 0.1µM, Lys2",0%
same,% Inhibition,"TLK1; 1µM, Lys1",3.9%
same,% Inhibition,"TLK1; 1µM, Lys2",-13.2%
same,% Inhibition,MAP3K5; 0.1µM,44.3%
same,% Inhibition,MAP3K5; 1µM,60.3%
same,% Inhibition,"ILK; 0.1µM, Lys1",4.8%
same,% Inhibition,"ILK; 0.1µM, Protein Kinase Domain",-4%
same,% Inhibition,"ILK; 1µM, Lys1",6.2%
same,% Inhibition,"ILK; 1µM, Protein Kinase Domain",26%
same,% Inhibition,LCK; 0.1µM,-11.6%
same,% Inhibition,LCK; 1µM,-0.3%
same,% Inhibition,"MARK1,MARK2; 0.1µM",6.2%
same,% Inhibition,"MARK1,MARK2; 1µM",3.2%
same,% Inhibition,"SGK3; 0.1µM, Lys1",8.9%
same,% Inhibition,"SGK3; 0.1µM, Lys2",-21.8%
same,% Inhibition,"SGK3; 1µM, Lys1",5.1%
same,% Inhibition,"SGK3; 1µM, Lys2",-10.5%
same,% Inhibition,"JAK3 domain2; 0.1µM, Activation Loop",6.4%
same,% Inhibition,"JAK3 domain2; 0.1µM, Lys1",2.6%
same,% Inhibition,"JAK3 domain2; 1µM, Activation Loop",7.7%
same,% Inhibition,"JAK3 domain2; 1µM, Lys1",-7.6%
same,% Inhibition,"PRP4; 0.1µM, Lys2",-12.1%
same,% Inhibition,"PRP4; 0.1µM, Protein Kinase Domain",-9.2%
same,% Inhibition,"PRP4; 1µM, Lys2",-13.6%
same,% Inhibition,"PRP4; 1µM, Protein Kinase Domain",-18%
same,% Inhibition,"KSR1,KSR2; 0.1µM",19.7%
same,% Inhibition,"KSR1,KSR2; 1µM",10.8%
same,% Inhibition,MLKL; 0.1µM,2.3%
same,% Inhibition,MLKL; 1µM,5.2%
same,% Inhibition,"MAP2K6; 0.1µM, Lys1",-18%
same,% Inhibition,"MAP2K6; 0.1µM, Lys2",14.6%
same,% Inhibition,"MAP2K6; 1µM, Lys1",1.8%
same,% Inhibition,"MAP2K6; 1µM, Lys2",6.2%
same,% Inhibition,YANK3; 0.1µM,8.2%
same,% Inhibition,YANK3; 1µM,13.5%
same,% Inhibition,"p38d,p38g; 0.1µM",0.8%
same,% Inhibition,"p38d,p38g; 1µM",-7.7%
same,% Inhibition,"SMG1; 0.1µM, peptide DTVTIHSVGGTITILPTKTKPK",-4.6%
same,% Inhibition,"SMG1; 0.1µM, peptide SYPYLFKGLEDLHLDER",7%
same,% Inhibition,"SMG1; 1µM, peptide DTVTIHSVGGTITILPTKTKPK",-3%
same,% Inhibition,"SMG1; 1µM, peptide SYPYLFKGLEDLHLDER",-11.6%
same,% Inhibition,"FER; 0.1µM, Activation Loop",10%
same,% Inhibition,"FER; 0.1µM, Lys1",-2%
same,% Inhibition,"FER; 1µM, Activation Loop",4.9%
same,% Inhibition,"FER; 1µM, Lys1",-3.4%
same,% Inhibition,ARAF; 0.1µM,7.6%
same,% Inhibition,ARAF; 1µM,2.5%
same,% Inhibition,"ABL,ARG; 0.1µM, Activation Loop",-15.2%
same,% Inhibition,"ABL,ARG; 0.1µM, Lys1",-22.4%
same,% Inhibition,"ABL,ARG; 1µM, Activation Loop",-0.3%
same,% Inhibition,"ABL,ARG; 1µM, Lys1",1.3%
same,% Inhibition,MST2; 0.1µM,15.1%
same,% Inhibition,MST2; 1µM,48%
same,% Inhibition,STLK3; 0.1µM,-1.9%
same,% Inhibition,STLK3; 1µM,-6.2%
